Results taken from ChEMBL document CHEMBL1201862, “PubChem BioAssay data set” (2004).
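How tested: cells in 96-well plates exposed to compound for 48 hours at five concentrations. GI50: concentration for 50% inhibition of growth.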 Activity calls are given as the source filed them. Rule as the data show it: active = GI50 up to about 1.1 µM and inactive = higher.

Tests used:
Experiment in all cases: NCI anticancer screen, dose series, 48 h
[1] = tested on: A498
[2] = tested on: SNB-75
[3] = tested on: NCI-H460
[4] = tested on: UACC-62
[5] = tested on: MCF7
[6] = tested on: SF-539
[7] = tested on: HCC 2998
[8] = tested on: IGROV-1
[9] = tested on: HL-60
[10] = tested on: Hs-578T
[11] = tested on: SK-MEL-2
[12] = tested on: T47D
[13] = tested on: NCI-H23
[14] = tested on: HCT-15
[15] = tested on: MDA-N
[16] = tested on: SK-MEL-28
[17] = tested on: MDA-MB-231
[18] = tested on: UO-31
[19] = tested on: SK-MEL-5
[20] = tested on: BT-549
[21] = tested on: KM12
[22] = tested on: OVCAR-5
[23] = tested on: COLO 205
[24] = tested on: UACC-257
[25] = tested on: EKVX
[26] = tested on: SW-620
[27] = tested on: NCI-H522
[28] = tested on: K562
[29] = tested on: OVCAR-4
[30] = tested on: HOP-62
[31] = tested on: SF-268
[32] = tested on: PC-3
[33] = tested on: SN12C
[34] = tested on: TK-10
[35] = tested on: OVCAR-3
[36] = tested on: SK-OV-3
[37] = tested on: U-251
[38] = tested on: LOX IMVI
[39] = tested on: DU-145
[40] = tested on: RXF 393
[41] = tested on: SNB-19
[42] = tested on: Malme-3M
[43] = tested on: M14
[44] = tested on: MOLT-4
[45] = tested on: CCRF-CEM
[46] = tested on: MDA-MB-435
[47] = tested on: HCT-116
[48] = tested on: 786-0
[49] = tested on: A549
[50] = tested on: NCI/ADR-RES
[51] = tested on: SF-295
[52] = tested on: CAKI-1
[53] = tested on: HOP-92
[54] = tested on: ACHN
[55] = tested on: OVCAR-8
[56] = tested on: HT-29
[57] = tested on: NCI-H226
[58] = tested on: RPMI-8226

## COC(=O)c1ccccc1C1CN=NC12Cc1ccc3c(c1C2=O)CCC3 (centres undefined)
[1]
  GI50: 55.2 µM (inactive)
[2]
  GI50: 58.6 µM (inactive)
[3]
  GI50: 70 µM (inactive)
[4]
  GI50: > 100 µM (inactive)
[5]
  GI50: 34.9 µM (inactive)
[6]
  GI50: > 100 µM (inactive)
[7]
  GI50: > 100 µM (inactive)
[8]
  GI50: > 100 µM (inactive)
[9]
  GI50: 19.6 µM (inactive)
[10]
  GI50: 74.3 µM (inactive)
[11]
  GI50: > 100 µM (inactive)
[12]
  GI50: 19.2 µM (inactive)
[13]
  GI50: 19.2 µM (inactive)
[14]
  GI50: > 100 µM
[15]
  GI50: > 100 µM (inactive)
[16]
  GI50: > 100 µM (inactive)
[17]
  GI50: 75.5 µM (inactive)
[18]
  GI50: 68.5 µM (inactive)
[19]
  GI50: 17.4 µM (inactive)
[20]
  GI50: > 100 µM (inactive)
[21]
  GI50: 42.1 µM (inactive)
[22]
  GI50: > 100 µM (inactive)
[23]
  GI50: > 100 µM (inactive)
[24]
  GI50: 44.1 µM (inactive)
[25]
  GI50: > 100 µM (inactive)
[26]
  GI50: > 100 µM (inactive)
[27]
  GI50: 6.55 µM (inactive)
[28]
  GI50: 7.23 µM (inactive)
[29]
  GI50: > 100 µM (inactive)
[30]
  GI50: > 100 µM (inactive)
[31]
  GI50: 27.6 µM (inactive)
[32]
  GI50: 49.3 µM (inactive)
[33]
  GI50: > 100 µM (inactive)
[34]
  GI50: > 100 µM (inactive)
[35]
  GI50: 6.92 µM (inactive)
[36]
  GI50: 49.4 µM (inactive)
[37]
  GI50: 49.1 µM (inactive)
[38]
  GI50: 9.04 µM (inactive)
[39]
  GI50: > 100 µM (inactive)
[40]
  GI50: 67.9 µM (inactive)
[41]
  GI50: 65 µM (inactive)
[42]
  GI50: 21.8 µM (inactive)
[43]
  GI50: > 100 µM (inactive)
[44]
  GI50: 12.6 µM (inactive)
[45]
  GI50: 19.3 µM (inactive)
[46]
  GI50: > 100 µM (inactive)
[47]
  GI50: 39.3 µM (inactive)
[48]
  GI50: 43.4 µM (inactive)
[49]
  GI50: > 100 µM (inactive)
[50]
  GI50: 19.5 µM (inactive)
[51]
  GI50: 70.6 µM (inactive)
[52]
  GI50: > 100 µM (inactive)
[53]
  GI50: 23.1 µM (inactive)
[54]
  GI50: 50.4 µM (inactive)
[55]
  GI50: 94.4 µM (inactive)
[56]
  GI50: 82 µM (inactive)
[57]
  GI50: 55.1 µM (inactive)

## Cc1cc2c(cc1Cl)SC(NNC(=O)c1ccco1)=NS2(=O)=O
[1]
  GI50: > 10 µM (inactive)
[2]
  GI50: > 10 µM (inactive)
[3]
  GI50: > 10 µM (inactive)
[4]
  GI50: > 10 µM (inactive)
[5]
  GI50: > 10 µM (inactive)
[6]
  GI50: > 10 µM (inactive)
[7]
  GI50: > 10 µM (inactive)
[8]
  GI50: > 10 µM (inactive)
[9]
  GI50: > 10 µM (inactive)
[10]
  GI50: > 10 µM (inactive)
[11]
  GI50: > 10 µM (inactive)
[12]
  GI50: > 10 µM (inactive)
[13]
  GI50: > 10 µM (inactive)
[14]
  GI50: > 10 µM
[15]
  GI50: > 10 µM (inactive)
[16]
  GI50: > 10 µM (inactive)
[17]
  GI50: > 10 µM (inactive)
[18]
  GI50: > 10 µM (inactive)
[19]
  GI50: > 10 µM (inactive)
[20]
  GI50: > 10 µM (inactive)
[21]
  GI50: > 10 µM (inactive)
[22]
  GI50: > 10 µM (inactive)
[23]
  GI50: > 10 µM (inactive)
[24]
  GI50: > 10 µM (inactive)
[25]
  GI50: > 10 µM (inactive)
[26]
  GI50: > 10 µM (inactive)
[27]
  GI50: > 10 µM (inactive)
[28]
  GI50: > 10 µM (inactive)
[29]
  GI50: > 10 µM (inactive)
[30]
  GI50: > 10 µM (inactive)
[31]
  GI50: > 10 µM (inactive)
[32]
  GI50: > 10 µM (inactive)
[33]
  GI50: > 10 µM (inactive)
[34]
  GI50: > 10 µM (inactive)
[35]
  GI50: > 10 µM (inactive)
[36]
  GI50: > 10 µM (inactive)
[37]
  GI50: > 10 µM (inactive)
[38]
  GI50: > 10 µM (inactive)
[39]
  GI50: > 10 µM (inactive)
[40]
  GI50: > 10 µM (inactive)
[41]
  GI50: > 10 µM (inactive)
[42]
  GI50: > 10 µM (inactive)
[43]
  GI50: > 10 µM (inactive)
[44]
  GI50: > 10 µM (inactive)
[45]
  GI50: > 10 µM (inactive)
[46]
  GI50: > 10 µM (inactive)
[47]
  GI50: > 10 µM (inactive)
[48]
  GI50: > 10 µM (inactive)
[49]
  GI50: > 10 µM (inactive)
[50]
  GI50: > 10 µM (inactive)
[58]
  GI50: > 10 µM (inactive)
[51]
  GI50: > 10 µM (inactive)
[52]
  GI50: > 10 µM (inactive)
[54]
  GI50: > 10 µM (inactive)
[55]
  GI50: > 10 µM (inactive)
[56]
  GI50: > 10 µM (inactive)
[57]
  GI50: > 10 µM (inactive)
